Test results from publication PMC10688625, “Evaluation of arsenic metabolism and tight junction injury after exposure to arsenite and monomethylarsonous acid using a rat in vitro blood–Brain barrier model” (PLOS ONE, 2023).
Where two headings read alike, the source gives them in different places.

Legend:
rat in vitro-BBB model [1] = system: rat in vitro-BBB model
claudin-5 [2] = assay type: cell-based, rat; settings: 2 μM
ZO-1 [3] = assay type: cell-based, rat; settings: 2 μM
rat in vitro-BBB model [4] = settings: 24 h
rat in vitro-BBB model [5] = assay type: cell-based
ZO-1 [6] = assay type: cell-based, rat
claudin-5 [7] = assay type: cell-based, rat
mouse brain slices = settings: cited from earlier work
[8] = mouse, in vivo; cited from earlier work

SMILES: C[As](O)O [MMA^III, monomethylarsonous acid]
- detection of dimethylarsinous acid as metabolite (rat in vitro-BBB model [1]): no dimethylarsinous acid was detected
- fraction oxidized or methylated (converted, detoxified) within the BBB (rat in vitro-BBB model [1]): Approximately 65%
- Penetration rate (%) DMA^V (rat in vitro-BBB model [1]; 0–6 h): 4.03±0.52%
- Penetration rate (%) MMA^III (rat in vitro-BBB model [1]; 0–6 h): 7.63±0.79%
- Penetration rate (%) MMA^V (rat in vitro-BBB model [1]; 0–6 h): 8.27±1.55%
- percentage of arsenic in total penetration rate: DMA^V (rat in vitro-BBB model [1]; 0–6 h): (28.5) %
- Penetration rate (%) DMA^V (rat in vitro-BBB model [1]; 0–24 h): 9.01±0.14%
- Penetration rate (%) MMA^III (rat in vitro-BBB model [1]; 0–24 h): 13.7±5.09%
- Penetration rate (%) MMA^V (rat in vitro-BBB model [1]; 0–24 h): 27.9±3.59%
- percentage of arsenic in total penetration rate: DMA^V (rat in vitro-BBB model [1]; 0–24 h): (21.4) %
- % Claudin-5 Area for control (claudin-5 [2]; 6 h): 46.6 ± 12.6%
- % Claudin-5 Area for control (claudin-5 [2]; 24 h): 37.2 ± 11.4%
- % ZO-1 Area for control (ZO-1 [3]; 6 h): 55.0 ± 11.2%
- % ZO-1 Area for control (ZO-1 [3]; 24 h): 59.1 ± 9.76%
- Papp of sodium fluorescein (rat in vitro-BBB model [4]; 0.1 μM): 1.90 ± 0.17 x 10-6 cm2/s
- Papp of sodium fluorescein (rat in vitro-BBB model [4]; 1 μM): 2.78 ± 0.28 x 10-6 cm2/s
- Na-F values elevated compared to the control group (rat in vitro-BBB model [4]; 2 μM): approximately 16 fold
- Papp of sodium fluorescein (rat in vitro-BBB model [4]; 2 μM): 34.0 ± 4.97 x 10-6 cm2/s
- %TEER (rat in vitro-BBB model [5]; 0.1 μM, 6 h): 109.7 ± 16.6%
- %TEER (rat in vitro-BBB model [5]; 0.1 μM, 24 h): 87.9 ± 13.0%
- %TEER (rat in vitro-BBB model [5]; 1 μM, 6 h): 61.6 ± 6.19%
- %TEER (rat in vitro-BBB model [5]; 1 μM, 24 h): 45.6 ± 2.09%
- %TEER (rat in vitro-BBB model [5]; 2 μM, 6 h): 9.17 ± 4.62%
- %TEER (rat in vitro-BBB model [5]; 2 μM, 24 h): 3.31 ± 0.67%
- ZO-1/β-actin (ZO-1 [6]; 0.1 μM, 6 h): 48.7 ± 25.7
- ZO-1/β-actin ratio for control (ZO-1 [6]; 0.1 μM, 6 h): 0.60 ± 0.25
- ZO-1/β-actin (ZO-1 [6]; 0.1 μM, 24 h): 41.0 ± 24.5
- ZO-1/β-actin ratio for control (ZO-1 [6]; 0.1 μM, 24 h): 0.54 ± 0.33
- ZO-1/β-actin (ZO-1 [6]; 1 μM, 6 h): 44.7 ± 26.2
- ZO-1/β-actin ratio for control (ZO-1 [6]; 1 μM, 6 h): 0.55 ± 0.26
- ZO-1/β-actin (ZO-1 [6]; 1 μM, 24 h): 71.6 ± 15.1
- ZO-1/β-actin ratio for control (ZO-1 [6]; 1 μM, 24 h): 0.93 ± 0.19
- ZO-1/β-actin (ZO-1 [6]; 2 μM, 6 h): 16.6 ± 5.59
- ZO-1/β-actin ratio for control (ZO-1 [6]; 2 μM, 6 h): 0.23 ± 0.15
- ZO-1/β-actin (ZO-1 [6]; 2 μM, 24 h): 28.7 ± 13.3
- ZO-1/β-actin ratio for control (ZO-1 [6]; 2 μM, 24 h): 0.37 ± 0.15
- Claudin-5/β-actin (claudin-5 [7]; 0.1 μM, 6 h): 30.5 ± 3.26
- Claudin-5/β-actin ratio for control (claudin-5 [7]; 0.1 μM, 6 h): 0.45 ± 0.19
- Claudin-5/β-actin (claudin-5 [7]; 0.1 μM, 24 h): 34.1 ± 25.6
- Claudin-5/β-actin ratio for control (claudin-5 [7]; 0.1 μM, 24 h): 0.37 ± 0.23
- Claudin-5/β-actin (claudin-5 [7]; 1 μM, 6 h): 25.8 ± 16.7
- Claudin-5/β-actin ratio for control (claudin-5 [7]; 1 μM, 6 h): 0.35 ± 0.16
- Claudin-5/β-actin (claudin-5 [7]; 1 μM, 24 h): 14.5 ± 4.52
- Claudin-5/β-actin ratio for control (claudin-5 [7]; 1 μM, 24 h): 0.16 ± 0.06
- Claudin-5/β-actin (claudin-5 [7]; 2 μM, 6 h): 9.38 ± 5.97
- Claudin-5/β-actin ratio for control (claudin-5 [7]; 2 μM, 6 h): 0.16 ± 0.15
- Claudin-5/β-actin (claudin-5 [7]; 2 μM, 24 h): 4.68 ± 1.30
- Claudin-5/β-actin ratio for control (claudin-5 [7]; 2 μM, 24 h): 0.05 ± 0.02

SMILES: O=[As][O-].[Na+] [sodium arsenite]
- DMA^V formation in mouse brain slices (mouse brain slices): DMA^V was detected
- DMA^V in brain tissue [8]: presence of DMA^V
